In test [1] the target is T1, D39G/R84G mutant EAG1 channels (Mus musculus, UniProt Q60603, D39G/R84G).
T1 construct: expressed in transfected cells; host or cells: Xenopus laevis oocytes injected with cRNA
T1 sequence (Q60603 1-989 D39G/R84G): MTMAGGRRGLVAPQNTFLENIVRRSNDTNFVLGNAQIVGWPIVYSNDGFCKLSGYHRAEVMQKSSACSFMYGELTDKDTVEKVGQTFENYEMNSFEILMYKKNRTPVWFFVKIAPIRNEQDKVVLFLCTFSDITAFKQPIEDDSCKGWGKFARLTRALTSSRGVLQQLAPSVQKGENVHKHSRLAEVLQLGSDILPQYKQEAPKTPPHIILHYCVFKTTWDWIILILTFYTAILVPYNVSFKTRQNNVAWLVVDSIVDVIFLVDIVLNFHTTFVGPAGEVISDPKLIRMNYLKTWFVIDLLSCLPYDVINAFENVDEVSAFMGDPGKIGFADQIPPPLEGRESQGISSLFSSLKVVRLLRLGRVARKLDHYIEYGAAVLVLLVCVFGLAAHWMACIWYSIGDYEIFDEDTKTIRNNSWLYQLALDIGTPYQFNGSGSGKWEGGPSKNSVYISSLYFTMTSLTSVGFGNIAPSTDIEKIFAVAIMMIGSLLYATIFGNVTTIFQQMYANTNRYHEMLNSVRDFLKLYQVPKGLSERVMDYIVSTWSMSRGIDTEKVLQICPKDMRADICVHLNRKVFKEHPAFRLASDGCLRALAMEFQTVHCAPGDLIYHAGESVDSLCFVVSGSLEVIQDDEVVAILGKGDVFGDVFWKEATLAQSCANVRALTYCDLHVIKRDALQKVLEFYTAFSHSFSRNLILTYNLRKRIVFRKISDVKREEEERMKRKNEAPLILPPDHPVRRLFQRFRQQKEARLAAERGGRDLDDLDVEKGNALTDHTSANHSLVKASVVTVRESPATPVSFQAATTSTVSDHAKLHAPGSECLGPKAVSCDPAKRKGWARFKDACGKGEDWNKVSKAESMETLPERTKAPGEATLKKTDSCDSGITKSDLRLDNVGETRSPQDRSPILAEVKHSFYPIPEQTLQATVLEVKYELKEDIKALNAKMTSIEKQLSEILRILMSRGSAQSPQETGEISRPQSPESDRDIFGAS
The experiment in a line: TEVC recording, imipramine inhibition, D39G/R84G double mutant. Type of test: cell-based. As to conditions: D39G/R84G mutant EAG1 channel, +50 mV. The text has this: (§1) The cDNA encoding wild-type (WT) mouse EAG1 channels in pGH19 vector was kindly provided by G. Robertson (University of Wisconsin-Madison, Madison, WI). The mutant ΔPAS EAG1 channel in pGH19 with the deletion of the PAS domain residues 2 to 130 was generated by Bio Basic Inc and verified by DNA sequencing (Genewiz). Mutant EAG1 channels with single amino acid substitutions were generated by Genewiz and verified by DNA sequencing. cRNA was transcribed using the T7 mMessage mMachine kit (Thermo Fisher Scientific). Defolliculated Xenopus laevis oocytes were purchased from Ecocyte Bioscience or Xenopus1 and injected with the cRNA using a Nanoinject II oocyte injector (Drummond).
(§2) For EAG1 current recordings, oocytes were placed into a handmade chamber containing a bath solution for the current recording. The currents were recorded using a TEVC technique with OC-725C amplifier (Warner Instruments) and pClamp11 software (Molecular Devices). The signals were digitized using Digidata 1550 (Molecular Devices). Patch pipettes were pulled from borosilicate glass and had resistances of 0.7 to 1.5 MΩ. The recording (bath) solution contained 96 mM NaCl, 4 mM KCl, 0.1 mM CaCl2, 1.8 mM MgCl2, and 5 mM HEPES, pH 7.5. The pipette solution contained 3 M KCl. […]

Test [2] has as its target T2, D39G mutant EAG1 channels (Mus musculus, UniProt Q60603, D39G).
T2 construct: expressed in transfected cells; host or cells: Xenopus laevis oocytes injected with cRNA
T2 sequence (Q60603 1-989 D39G): T1 sequence (Q60603 1-989 D39G/R84G) with G84R
The experiment in a line: TEVC recording, imipramine inhibition, D39G mutant. Type of test: cell-based. The note with it: D39G mutant EAG1 channel, +50 mV.
Source text: as §1, §2

The structures appear in SMILES notation. Residue numbers refer to the chain shown, from its start.

Take `CN(C)CCCN1c2ccccc2CCc2ccccc21` [imipramine]: the half-inhibitory concentration (IC50) (in general, the concentration that gives 50% inhibition) in test [1] was 142 ± 28.5 µM; in test [2], 79.6 ± 5.4 µM.
